Test results published in US20060115895A1, “Fish disease models and uses thereof” (priority 2002, published 2006).
Where two headings read alike, the source gives them in different places.

Experiments:
[1] = system: zebrafish of tup background; assay: DMSO tolerance of zebrafish; assay type: in vivo
Description: Zebrafish of tup background were tested in batches of 10. DMSO was added to fish water on day 3 and fish examined daily up to day 9. […] Motoric behaviour was also normal.

[2] = system: epilepsy induced in the fish; assay: anti-seizure effect in fish with induced epilepsy; assay type: in vivo; details: concentration in fish water
Description: Continuing with the example of epilepsy by way of illustration, in embodiments of this aspect of the present invention a known drug may be administered to the fish, for example sodium valproate. Epilepsy is then induced in the fish. Additional test substances, such as candidate chemicals, or genetic mutation may then be applied to the fish and assessed for their anti-epileptogenic effect. […] Any combination of these and/or other drugs or test substances may be arrayed in every possible combination and tested for synergistic efficacy. Appropriate doses vary from 1 nM to 100 mM, e.g. 0.1 μM to 10 mM, with 100 uM being a reasonable starting concentration to assess.

[3] = system: interleukin 11 transgene (tetracycline inducible system); details: mouse, in vivo; cited from earlier work
[4] = system: fish reared in nicotine; details: for fish attracted to nicotine impregnated methyl cellulose: previously bathed at 5 ug/ml, 5 fish per group; for response/preference to nicotine: challenged 8 d.p.f. with 2.5 ug/ml nicotine in 3% methyl cellulose
Description: (§1) Fish were reared in nicotine from 2 dpf (immediately after hatching) to 7 d.p.f. at concentrations (in the fish water) of 0.5, 2.5, 5, 25, 50 ug/ml (5 fish per test group). The nicotine medium was then removed and replaced with E3M (embryo medium) at 7 d.p.f. They were then challenged at 8 d.p.f. with 2.5 ug/ml nicotine in 3% methyl cellulose.

[5] = system: fish reared in nicotine
Description: as §1
Details of the toxicity dose/response experiment are given below: […]

[6] = 1% DMSO (10 ul/ml), added day 3, examined daily up to day 9

C[S+](C)[O-] [DMSO, dimethyl sulphoxide]
abnormality on detailed examination under dissecting microscope [1, 6]: no abnormality was detected
motoric behaviour [1, 6]: normal
DMSO concentration zebrafish can tolerate ([1]; final concentration in fish water): 1%

CN1C(=O)CN=C(c2ccccc2)c2cc(Cl)ccc21 [diazepam]
concentration showing therapeutic effects in monotherapy [2]: 35 µM

C[C@H]1c2cccc(O)c2C(=O)C2=C(O)[C@]3(O)C(=O)C(C(N)=O)=C(O)[C@@H](N(C)C)[C@@H]3[C@@H](O)[C@@H]21 [doxycycline]
toxicity to embryos treated in utero, pups or adults [3]: no apparent toxicity

CN1CCCC1c1cccnc1 (stereo not shown) [nicotine]
toxicity ([4]; 25 ug/ml in fish water from 2 dpf): Toxicity was seen
toxicity ([4]; 50 ug/ml in fish water from 2 dpf): Toxicity was seen
fish attracted to nicotine impregnated methyl cellulose ([4]; by 4 mins): 2 fish
fish attracted to nicotine impregnated methyl cellulose ([4]; by 5 mins): 3 fish
fish attracted to nicotine impregnated methyl cellulose ([4]; by 15 mins): 4 fish
response/preference to nicotine ([4]; previously bathed in 0.5 ug/ml): no response/preference
response/preference to nicotine ([4]; previously bathed in 2.5 ug/ml): no response/preference
escape response when prodded ([5]; 0.5 ug/ml, 3 d.p.f.): escape response as above
survival ([5]; 0.5 ug/ml, 3 d.p.f.): all alive
escape response when prodded ([5]; 0.5 ug/ml, 4 d.p.f.): escape response as above
survival ([5]; 0.5 ug/ml, 4 d.p.f.): all alive
escape response when prodded ([5]; 2.5 ug/ml, 3 d.p.f.): escape response as above
survival ([5]; 2.5 ug/ml, 3 d.p.f.): all alive
escape response when prodded ([5]; 2.5 ug/ml, 4 d.p.f.): escape response as above
survival ([5]; 2.5 ug/ml, 4 d.p.f.): all alive
escape response when prodded ([5]; 5.0 ug/ml, 3 d.p.f.): escape response as above
survival ([5]; 5.0 ug/ml, 3 d.p.f.): all alive
escape response when prodded ([5]; 5.0 ug/ml, 4 d.p.f.): escape response as above
survival ([5]; 5.0 ug/ml, 4 d.p.f.): all alive
escape response when prodded ([5]; 25 ug/ml, 3 d.p.f.): twitch but no escape response when prodded
survival ([5]; 25 ug/ml, 3 d.p.f.): all alive
escape response when prodded ([5]; 25 ug/ml, 4 d.p.f.): twitch but no escape response when prodded
survival ([5]; 25 ug/ml, 4 d.p.f., 5 fish per group): 4 dead, 1 alive
escape response when prodded ([5]; 50 ug/ml, 3 d.p.f.): twitch but no escape response when prodded
survival ([5]; 50 ug/ml, 3 d.p.f.): all alive
survival ([5]; 50 ug/ml, 4 d.p.f.): all, dead
